From patent US20240277717A1, “APPLICATION OF GANCICLOVIR IN PREPAPRATION OF MEDICINE FOR TREATING ALLERGIC RHINITIS” (Union Hospital, Tongji Medical College, Huazhong University …, priority 2023, published 2024)
Entries after “also recorded” stand apart in the source; their conditions may differ.

System: peripheral blood mononuclear cells (PBMCs)
Assay: GCV medicine test of the PBMCs in vitro (flow cytometry)
Type: cell-based, human
Conditions: 400 μM GCV, 48 hours
Protocol: The peripheral blood of patients with the intractable AR is collected. The peripheral blood mononuclear cells (PBMCs) are isolated within 8 hours using a lymphocyte separation medium (MP biomedicals) and suspended in Roswell Park Memorial Institute (RPMI) 1640 medium (Gibco™) containing 10% heat-inactivated fetal bovine serum (Gibco™, Grand Island) and 1% penicillin and streptomycin (Gibco™) at a density of 1×10^6/mL. Three wells are set for each sample, including: a non treated well (also referred to as NT well), a well adding 1 microliter (μL) dimethyl sulfoxide (DMSO; Solarbio®) (also referred to as DMSO well), and a well adding 400 micromoles per liter (μM) of the GCV (diluted with DMSO, Selleck) (also referred to as GCV well). The PBMCs are cultured in a 24-well cell culture plate (Corning®, NY) under different stimulations in a 5% CO2, 37° C. cell incubator. According to the instructions of Leukocyte Activation Cocktail with BD GolgiPlug™ (BD Bioscience), the PBMCs are added to a cell culture medium 4-6 hours before dyeing to improve the dyeing effect of intracellular cytokines. After 48 hours of cell culture, the cell solution is collected and dyed with anti-human fixable viability stain 510 (FVS-BV510), brilliant violet 605 anti-human cluster of differentiation 4 antibody (CD4-BV605), and […] isothiocyanate isomer I (CD8-FITC), and then dyed with interleukin-4-brilliant violet™ 421 dyes (IL-4-BV421), interleukin-17A-phycoerythrin (IL-17A-PE), human interferon-gamma-PE-cyanine7 dye (IFNγ-PE-Cy7), and FOXP3-BB700 (all from BD Bioscience) after breaking the nucleus with a fixed nuclear breaker (eBioscience™). BD LSRFortessa™ X-20 (BD Biosciences, USA) and FlowJo™ software (FlowJo, Ashland, OR USA) are used for analysis.

[1] = PBMCs of GCV effective and ineffective groups

With Nc1nc(O)c2ncn(COC(CO)CO)c2n1 [GCV, Ganciclovir] the “percentage of CD4+IFNγ+ cells, change” value [1] was “no significant change”, the “percentage of CD4+IL4+ cells, change” value [1] was “no significant change” and the “percentage of CD4+IL17A+ cells, change” value [1] was “no significant change”. For the same compound, the “percentage of CD8+IFNγ+ cells/CD4+, change” value [1] was “no significant change”, the “percentage of CD4+FOXP3+ cells/CD4+ cells, GCV well vs DMSO well” value (PBMCs of GCV effective group n=26, p<0.001) was “significantly increased; also recorded: significantly higher” and the “percentage of CD4+FOXP3+ cells/CD4+ cells, GCV well vs DMSO well” value (PBMCs of GCV ineffective group n=14, p<0.05) was “significantly lower”.
